Read-outs that look alike come from different tables or passages of the source.
What was measured:
KKA^y mice = assay: Total cholesterol lowering action and plasma anti-arteriosclerosis index enhancing action in mice (Test Example 2); assay type: in vivo; conditions: Mus musculus, po, 96 h, four days; for change in vivo at 0.005 % / change in vivo at 0.01 %: percent increase of [(HDL cholesterol/total cholesterol)×100] vs non-administration group; for change in vivo at 0.005 % / inhibition in vivo at 0.005 %: 0.005% in powdery diet; for inhibition in vivo at 0.005 % / inhibition in vivo at 0.01 %: percent reduction of plasma total cholesterol level vs non-administration group; for change in vivo at 0.01 % / inhibition in vivo at 0.01 %: 0.01% in powdery diet
Source text: Test compounds were mixed in a powdery diet (CE-2, Japan Clea) the concentration of 0.01% (compounds of Examples 7, 26, 29 and 32) or 0.005% (compounds of Examples 1, 11, 15, 18, 24, 36, 37, 41, 48, 50, 51, 52, 58, 62, 79, 88, 91, 92, 93, 97, 107, 110, 129 and 130), and freely given to KKA^y mice (11 to 12 weeks old, 5 mice per group), a model of type-2 diabetes mellitus, for four days. During this period, water was given freely. Blood was sampled from orbital venous plexus and components were analyzed using the plasma separated from the blood. Total cholesterol levels were determined by using L type Wako Cholesterol (Wako Pure Chemical Industries, Ltd). Precipitation reagent for HDL cholesterol (Wako Pure Chemical Industries, Ltd.) was added to a part of the plasma to precipitate non-HDL lipoprotein, and cholesterol (HDL cholesterol) in the resulting supernatant was determined. The plasma anti-arteriosclerosis index [(HDL cholesterol/total cholesterol)×100] was calculated by using these cholesterol levels.
In the Table, “Total cholesterol lowering action (%)” represents the percent reduction (%) of total cholesterol level in the test compound administration group, when the total cholesterol level in the test compound non-administration group is taken as 100%. “Plasma anti-arteriosclerosis index-enhancing action (%)” represents the percent increase (%) of plasma anti-arteriosclerosis index in the test compound administration group, when the plasma anti-arteriosclerosis index in the test compound non-administration group is taken as 100%.

KKAY mice = assay: Hypoglycemic and hypolipidemic actions in mice (Test Example 1); assay type: in vivo; conditions: Mus musculus, po, 96 h, four days; for inhibition in vivo at 0.005 %: 0.005% in powdery diet; for inhibition in vivo at 0.01 %: 0.01% in powdery diet
Source text: Test compounds were mixed in a powdery diet (CE-2, Japan Clea) at the concentration of 0.01% (compounds of Examples 7, 26, 29, 32) or 0.005% (compounds of Examples 1, 11, 15, 18, 24, 36, 37, 41, 48, 50, 51, 52, 58, 62, 79, 83, 88, 90, 91, 92, 93, 97, 107, 110, 115, 119, 122, 125, 129 and 130), and freely given to KKAY mice (11 to 12 weeks old, 5 mice in a group), a model of type 2 diabetes mellitus, for four days. During this period, water was given freely. Blood was sampled from orbital venous plexus, and glucose and triglyceride levels in plasma separated from blood were determined enzymatically using L type Wako Glu2 (Wako Pure Chemical Industries, Ltd.) or L type Wako TG.H (Wako Pure Chemical Industries, Ltd.), respectively.
In the Table, “hypoglycemic action (%)” means a percent reduction (%) of the glucose level in the test compound administration group when that of the test compound non-administration group is taken as 100%. In addition, the “hypolipidemic action (%)” means a percent reduction (%) of the triglyceride level in the test compound administration group when that of the test compound non-administration group is taken as 100%.

[1] = percent reduction of plasma glucose level vs non-administration group, read-out: hypoglycemic action (%)
[2] = percent reduction of plasma triglyceride level vs non-administration group, read-out: hypolipidemic action (%)

## Cc1sc(-c2ccccc2)nc1COc1ccc(COc2ncccc2CC(=O)O)cc1 [Example 93, 2-[2-[4-[(5-methyl-2-phenyl-4-thiazolyl)methoxy]benzyloxy]-3-pyridyl]acetic acid]
KKA^y mice
  change in vivo at 0.005 %: 17%
  inhibition in vivo at 0.005 %: 16%
other
  melting point: 128 to 129 °C
KKAY mice; [1]
  inhibition in vivo at 0.005 %: 45%
KKAY mice; [2]
  inhibition in vivo at 0.005 %: 53%

## O=C(O)Cc1ccccc1OCc1ccc(OCc2csc(-c3ccccc3)n2)cc1 [Example 51, 2-[2-[4-[(2-phenyl-4-thiazolyl)methoxy]benzyloxy]phenyl]acetic acid]
KKA^y mice
  change in vivo at 0.005 %: 22%
  inhibition in vivo at 0.005 %: 24%
other
  melting point: 115 to 116 °C
KKAY mice; [1]
  inhibition in vivo at 0.005 %: 55%
KKAY mice; [2]
  inhibition in vivo at 0.005 %: 79%

## Cc1oc(-c2ccccc2)nc1COc1ccc(COc2ccccc2CC(=O)O)cn1 [Example 41, 2-[2-[[6-[(5-methyl-2-phenyl-4-oxazolyl)methoxy]-3-pyridyl]methoxy]phenyl]acetic acid]
KKA^y mice
  change in vivo at 0.005 %: 28%
  inhibition in vivo at 0.005 %: 25%
other
  melting point: 123 to 125 °C
KKAY mice; [1]
  inhibition in vivo at 0.005 %: 48%
KKAY mice; [2]
  inhibition in vivo at 0.005 %: 93%

## CCOc1ccc(OCc2ccc(OCc3nc(-c4ccccc4)oc3C)cc2)c(CCC(=O)O)c1 [Example 29, 3-[5-ethoxy-2-[4-[(5-methyl-2-phenyl-4-oxazolyl)methoxy]benzyloxy]phenyl]propionic acid]
KKA^y mice
  change in vivo at 0.01 %: 20%
  inhibition in vivo at 0.01 %: 21%
other
  melting point: 115 to 116 °C
KKAY mice; [1]
  inhibition in vivo at 0.01 %: 58%
KKAY mice; [2]
  inhibition in vivo at 0.01 %: 67%

## Cc1oc(-c2ccccc2)nc1COc1cccc(COc2cccc(CC(=O)O)c2)c1 [Example 32, 2-[[3-[3-(5-methyl-2-phenyl-4-oxazolyl)methoxy]benzyloxy]phenyl]acetic acid]
KKA^y mice
  change in vivo at 0.01 %: 10%
  inhibition in vivo at 0.01 %: 2%
other
  melting point: 101 to 102 °C
KKAY mice; [1]
  inhibition in vivo at 0.01 %: 40%
KKAY mice; [2]
  inhibition in vivo at 0.01 %: 53%

## Cc1oc(-c2ccccc2)nc1CCc1noc(COc2ccccc2CC(=O)O)n1 [Example 107, 2-[2-[[3-[2-(5-methyl-2-phenyl-4-oxazolyl)ethyl]-1,2,4-oxadiazol-5-yl]methoxy]phenyl]acetic acid]
KKA^y mice
  change in vivo at 0.005 %: 9%
  inhibition in vivo at 0.005 %: 13%
other
  melting point: 120 to 121 °C
KKAY mice; [1]
  inhibition in vivo at 0.005 %: 40%
KKAY mice; [2]
  inhibition in vivo at 0.005 %: 39%

## Cc1oc(-c2ccco2)nc1COc1ccc(COc2ccccc2CC(=O)O)cc1 [Example 50, 2-[2-[4-[[2-(2-furyl)-5-methyl-4-oxazolyl]methoxy]benzyloxy]phenyl]acetic acid]
KKA^y mice
  change in vivo at 0.005 %: 15%
  inhibition in vivo at 0.005 %: 20%
other
  melting point: 167 to 168 °C
KKAY mice; [1]
  inhibition in vivo at 0.005 %: 54%
KKAY mice; [2]
  inhibition in vivo at 0.005 %: 77%

## Cc1oc(-c2ccccc2)nc1COc1cc(COc2cccc(CC(=O)O)c2)ccn1 [Example 62, 2-[3-[2-[(5-methyl-2-phenyl-4-oxazolyl)methoxy]-4-pyridylmethoxy]phenyl]acetic acid]
KKA^y mice
  change in vivo at 0.005 %: 15%
  inhibition in vivo at 0.005 %: 9%
other
  melting point: 148 to 149 °C
KKAY mice; [1]
  inhibition in vivo at 0.005 %: 47%
KKAY mice; [2]
  inhibition in vivo at 0.005 %: 44%

## COc1ccc(OCc2ccc(OCc3nc(-c4ccccc4)oc3C)cc2)c(CC(=O)O)c1 [Example 24, 2-[5-methoxy-2-[4-[(5-methyl-2-phenyl-4-oxazolyl)methoxy]benzyloxy]phenyl]acetic acid]
KKA^y mice
  change in vivo at 0.005 %: 17%
  inhibition in vivo at 0.005 %: 10%
other
  melting point: 134 to 136 °C
KKAY mice; [1]
  inhibition in vivo at 0.005 %: 49%
KKAY mice; [2]
  inhibition in vivo at 0.005 %: 67%

## Cc1sc(-c2ccccc2)nc1COc1ccc(COc2ccccc2CC(=O)O)cc1 [Example 52, 2-[2-[4-[(5-methyl-2-phenyl-4-thiazolyl)methoxy]benzyloxy]phenyl]acetic acid]
KKA^y mice
  change in vivo at 0.005 %: 15%
  inhibition in vivo at 0.005 %: 26%
other
  melting point: 122 to 123 °C
KKAY mice; [1]
  inhibition in vivo at 0.005 %: 56%
KKAY mice; [2]
  inhibition in vivo at 0.005 %: 61%

## Cc1ccc(CC(=O)O)c(OCc2ccc(OCc3nc(-c4ccccc4)oc3C)cc2)n1 [Example 110, 2-[6-methyl-2-[4-[(5-methyl-2-phenyl-4-oxazolyl)methoxy]benzyloxy]-3-pyridyl]acetic acid]
KKA^y mice
  change in vivo at 0.005 %: 24%
  inhibition in vivo at 0.005 %: 21%
other
  melting point: 138 to 139 °C
KKAY mice; [1]
  inhibition in vivo at 0.005 %: 51%
KKAY mice; [2]
  inhibition in vivo at 0.005 %: 74%

## Cc1oc(-c2ccccc2)nc1COc1ccc(COc2ccccc2CC(=O)O)cc1 [Example 11, 2-[2-[4-[(5-methyl-2-phenyl-4-oxazolyl)methoxy]benzyloxy]phenyl]acetic acid]
KKA^y mice
  change in vivo at 0.005 %: 18%
  inhibition in vivo at 0.005 %: 23%
other
  melting point: 153 to 154 °C
KKAY mice; [1]
  inhibition in vivo at 0.005 %: 56%
KKAY mice; [2]
  inhibition in vivo at 0.005 %: 84%

## COc1cc(COc2ncccc2CC(=O)O)ccc1OCc1nc(-c2ccccc2)oc1C [Example 91, 2-[2-[3-methoxy-4-[(2-phenyl-5-methyl-4-oxazolyl)methoxy]benzyloxy]-3-pyridyl]acetic acid]
KKA^y mice
  change in vivo at 0.005 %: 16%
  inhibition in vivo at 0.005 %: 6%
other
  melting point: 145 to 146 °C
KKAY mice; [1]
  inhibition in vivo at 0.005 %: 50%
KKAY mice; [2]
  inhibition in vivo at 0.005 %: 67%

## COc1cc(COc2ccccc2CC(=O)O)ccc1OCc1nc(-c2ccccc2)oc1C [Example 48, 2-[2-[3-methoxy-4-[(2-phenyl-5-methyl-4-oxazolyl)methoxy]benzyloxy]phenyl]acetic acid]
KKA^y mice
  change in vivo at 0.005 %: 20%
  inhibition in vivo at 0.005 %: 17%
other
  melting point: 165 to 166 °C
KKAY mice; [1]
  inhibition in vivo at 0.005 %: 53%
KKAY mice; [2]
  inhibition in vivo at 0.005 %: 50%

## Cc1oc(-c2ccccc2)nc1COc1ccc(COc2ncccc2CC(=O)O)cc1 [Example 36, 2-[2-[4-[(5-methyl-2-phenyl-4-oxazolyl)methoxy]benzyloxy]-3-pyridyl]acetic acid]
KKA^y mice
  change in vivo at 0.005 %: 34%
  inhibition in vivo at 0.005 %: 19%
other
  melting point: 144 to 145 °C
KKAY mice; [1]
  inhibition in vivo at 0.005 %: 55%
KKAY mice; [2]
  inhibition in vivo at 0.005 %: 71%

## Cc1oc(-c2ccccc2)nc1CCc1ccc(COc2ccccc2CC(=O)O)cc1 [Example 97, 2-[2-[4-[2-(5-methyl-2-phenyl-4-oxazolyl)ethyl]benzyloxy]phenyl]acetic acid]
KKA^y mice
  change in vivo at 0.005 %: 27%
  inhibition in vivo at 0.005 %: 27%
other
  melting point: 130 to 131 °C
KKAY mice; [1]
  inhibition in vivo at 0.005 %: 34%
KKAY mice; [2]
  inhibition in vivo at 0.005 %: 83%

## Cc1oc(-c2ccccc2)nc1COc1cc(COc2ccccc2CC(=O)O)on1 [Example 79, 2-[2-[3-(5-methyl-2-phenyl-4-oxazolylmethoxy)-5-isoxazoly]methoxylphenyl]acetic acid]
KKA^y mice
  change in vivo at 0.005 %: 42%
  inhibition in vivo at 0.005 %: 39%
other
  melting point: 152 to 153 °C
KKAY mice; [1]
  inhibition in vivo at 0.005 %: 54%
KKAY mice; [2]
  inhibition in vivo at 0.005 %: 96%

## Cc1oc(-c2ccccc2)nc1COc1ccc(COc2cccnc2CC(=O)O)cc1 [Example 37, 2-[3-[4-[(5-methyl-2-phenyl-4-oxazolyl)methoxy]benzyloxy]-2-pyridyl]acetic acid]
KKA^y mice
  change in vivo at 0.005 %: 19%
  inhibition in vivo at 0.005 %: 15%
other
  melting point: 115 to 116 °C (dec.)
KKAY mice; [1]
  inhibition in vivo at 0.005 %: 50%
KKAY mice; [2]
  inhibition in vivo at 0.005 %: 61%

## Cc1oc(-c2ccco2)nc1COc1ccc(COc2ncccc2CC(=O)O)cc1 [Example 92, 2-[2-[4-[[2-(2-furyl)-5-methyl-4-oxazolyl]methoxy]benzyloxy]-3-pyridyl]acetic acid]
KKA^y mice
  change in vivo at 0.005 %: 23%
  inhibition in vivo at 0.005 %: 15%
other
  melting point: 151 to 152 °C
KKAY mice; [1]
  inhibition in vivo at 0.005 %: 58%
KKAY mice; [2]
  inhibition in vivo at 0.005 %: 83%

Source: patent publication US7238716B2, “Alkanoic acid derivatives process for their production and use thereof” (Takeda Pharmaceuticals Company Limited, priority 2000, dated 2007)
